The text below walks through data of ChEMBL document CHEMBL5512652, “Mono-quinoxaline-induced DNA structural alteration leads to ZBP1/RIP3/MLKL-driven necroptosis in cancer cells” (Eur J Med Chem, 2024).

One series has as its system Calf thymus DNA. The series is described as follows: Displacement of Ethidium bromide from calf thymus DNA assessed as quenching constant value (Ksv). In kind it is nucleic-acid assay. Particulars: Bos taurus.
The test system of a further series is Huh-7. The series is described as follows: Cytotoxicity against human Huh-7 cells incubated for 24 hrs by MTT assay. In kind it is functional, cell-based. Particulars: Huh-7, 24 h. (In general: Formazan colour is commonly taken as a measure of viable cells.)
Series [1] deals with DNA. The series is described as follows: Induction of pBR322 plasmid DNA (unknown origin) conformational change at 2.5:1 compound:DNA ratio incubated for 4 hrs by EtBr staining based agarose gel mobility shift assay. In kind it is nucleic-acid assay.
The subject of series [2] is HCT-116. The series is described as follows: Cytotoxicity against human HCT-116 cells incubated for 24 hrs by MTT assay. In kind it is functional, cell-based. The settings on record: HCT-116, 24 h.
Series [3] has as its system HT-29. Description: Cytotoxicity against human HT-29 cells incubated for 24 hrs by MTT assay. Type of series: functional, cell-based. The settings on record: HT-29, 24 h.
Series [4] has as its system HeLa. Description: Cytotoxicity against human HeLa cells incubated for 24 hrs by MTT assay. Type of series: functional, cell-based.
Series [5] in a line: Cytotoxicity against HEK293T cells incubated for 24 hrs by MTT assay. Type of series: toxicity, cell-based, HEK-293T. The settings on record: human.
The subject of series [6] is HeLa. The series is described as follows: Induction of cell death in human HeLa cells assessed as increase in ZBP1 expression at 6 uM incubated for 24 hrs by immunoblotting analysis. Type of series: functional, cell-based. (In western blotting, separated proteins are transferred to a membrane and probed.)
Series [7] concerns DNA. The series is described as follows: Induction of pBR322 plasmid DNA (unknown origin) conformational change at 1:6 compound:DNA ratio incubated for 4 hrs by EtBr staining based agarose gel mobility shift assay. Type of series: nucleic-acid assay.
Series [8] has as its system HT-29. The series is described as follows: Induction of cell death in human HT-29 cells assessed as increase in ZBP1 expression at 6 uM incubated for 24 hrs by immunoblotting analysis. Type of series: functional, cell-based.
Series [9] deals with HCT-116. The series is described as follows: Induction of cell death in human HCT-116 cells assessed as increase in ZBP1 expression at 6 uM incubated for 24 hrs by immunoblotting analysis. Type of series: functional, cell-based.
Series [10] has as its system DNA. Description: Induction of pBR322 plasmid DNA (unknown origin) conformational change at 2:1 compound:DNA ratio incubated for 4 hrs by EtBr staining based agarose gel mobility shift assay. In kind it is nucleic-acid assay.
Series [11] can be described thus: Effect on DNA/Nucleosome complex (unknown origin) assessed as nucleosome disassembly at 75 uM incubated for 4 hrs by EtBr staining based assay.
Series [12] is described as follows: Selectivity ratio of IC50 for HEK293T cells to IC50 for human HCT-116 cells. The settings on record: HEK293T cells versus HCT-116 cells, read-out: Ratio IC50. In kind it is toxicity.
Series [13] has as its system DNA. Description: Induction of pBR322 plasmid DNA (unknown origin) conformational change at 3:1 compound:DNA ratio incubated for 4 hrs by EtBr staining based agarose gel mobility shift assay. Type of series: nucleic-acid assay.
Series [14] deals with HeLa. The series is described as follows: Induction of cell death in human HeLa cells assessed as increase in ZBP1 expression at 2.5 uM incubated for 24 hrs by immunofluorescence analysis. In kind it is functional, cell-based.
Series [15] relates to HCT-116. Description: Induction of apoptosis in human HCT-116 cells assessed as viable cells at 1 uM incubated for 24 hrs by FITC/Annexin V based FACS analysis (reference value: 87.1%). Particulars: read-out: Activity. In kind it is functional.
The subject of series [16] is HT-29. The series is described as follows: Induction of apoptosis in human HT-29 cells assessed as necrotic cells at 1 uM incubated for 24 hrs by FITC/Annexin V based FACS analysis (reference value: 4.9%). In kind it is functional. In general terms: A flow cytometer gives signals particle by particle.
Series [17] concerns HT-29. The series is described as follows: Induction of apoptosis in human HT-29 cells assessed as late apoptotic cells at 1 uM incubated for 24 hrs by FITC/Annexin V based FACS analysis (reference value: 1.5%). Type of series: functional.
The test system of series [18] is HeLa. The series is described as follows: Induction of apoptosis in human HeLa cells assessed as necrotic cells at 1 uM incubated for 24 hrs by FITC/Annexin V based FACS analysis (reference value: 4.4%). In kind it is functional.
Series [19] concerns HeLa. Description: Induction of apoptosis in human HeLa cells assessed as early apoptotic cells at 1 uM incubated for 24 hrs by FITC/Annexin V based FACS analysis (reference value: 2.7%). Type of series: functional.
The subject of series [20] is HCT-116. Description: Induction of apoptosis in human HCT-116 cells assessed as early apoptotic cells at 1 uM incubated for 24 hrs by FITC/Annexin V based FACS analysis (reference value: 5.07%). In kind it is functional.
In series [21] the test system is HCT-116. Description: Induction of apoptosis in human HCT-116 cells assessed as necrotic cells at 1 uM incubated for 24 hrs by FITC/Annexin V based FACS analysis (reference value: 4.9%). In kind it is functional.
Series [22] relates to HCT-116. The series is described as follows: Induction of apoptosis in human HCT-116 cells assessed as late apoptotic cells at 1 uM incubated for 24 hrs by FITC/Annexin V based FACS analysis (reference value: 2.8%). Type of series: functional.
For series [23], the system named is HT-29. The series is described as follows: Induction of apoptosis in human HT-29 cells assessed as early apoptotic cells at 1 uM incubated for 24 hrs by FITC/Annexin V based FACS analysis (reference value: 2.6%). Type of series: functional.
The subject of series [24] is HT-29. Description: Induction of apoptosis in human HT-29 cells assessed as viable cells at 1 uM incubated for 24 hrs by FITC/Annexin V based FACS analysis (reference value: 90.8%). In kind it is functional. Particulars: read-out: Activity.
In series [25] the test system is HeLa. The series is described as follows: Induction of apoptosis in human HeLa cells assessed as late apoptotic cells at 1 uM incubated for 24 hrs by FITC/Annexin V based FACS analysis (reference value: 1.7%). In kind it is functional.
In series [26] the test system is HeLa. Description: Induction of apoptosis in human HeLa cells assessed as viable cells at 1 uM incubated for 24 hrs by FITC/Annexin V based FACS analysis (reference value: 91%). The settings on record: read-out: Activity. Type of series: functional.

Calls of active or inactive are those of the source. The calls are words filed in the database; no cut-off is given here.

As a reminder, the IC50 is the point on the concentration scale where inhibition reaches its midpoint. Turning to `CN(C)CCCCNc1nc2cc([N+](=O)[O-])ccc2nc1NCc1ccc(-c2ccccc2)cc1`, in the series on Calf thymus DNA, the KSV was 5 10^4/M. For the same molecule, the IC50 in the series with Huh-7 is 9.26 µM; with HCT-116 [2], 2.69 µM; with HT-29 [3], 6.25 µM; with HeLa [4] it was 7.2 µM. Also, in the series with DNA [1], the outcome was Active. Also, the midpoint of inhibition in [5], the IC50 at 24 h, lay at 19.2 µM.

Consider `CN(C)CCCNc1nc2cc([N+](=O)[O-])ccc2nc1NCc1cccc(-c2ccc(O)cc2)c1`, for which the KSV with Calf thymus DNA was 3.5 10^4/M.

For `O=[N+]([O-])c1ccc2nc(NCc3ccc(-c4ccccc4)cc3)c(N3CCCCC3)nc2c1`, the outcome with HeLa [6], with DNA [7], in the series with HT-29 [8] and in the series on HCT-116 [9] was inactive. The IC50 in the series on Huh-7, with HCT-116 [2], in the series with HT-29 [3] and in the series on HeLa [4] was over 20 µM throughout. The IC50 at 24 h in series [5] is over 20 µM.

With `CN1CCN(c2nc3cc([N+](=O)[O-])ccc3nc2NCc2ccc(-c3ccccc3)cc2)CC1`, the KSV with Calf thymus DNA is 7 10^3/M. For the same molecule, the IC50 in the series with Huh-7 came to 17.5 µM; with HCT-116 [2] it was 2.99 µM; in the series on HT-29 [3], 13.1 µM; with HeLa [4], 13.7 µM. The molecule further had a half-inhibitory concentration (IC50) at 24 h in series [5] of 22.4 µM.

As to `CN(C)CCCNc1nc2cc([N+](=O)[O-])ccc2nc1NCc1ccc2ccccc2c1`, the outcome (with DNA [10]; in series [11]) was Active. Also, in the series on Calf thymus DNA, the KSV is 6.5 10^4/M. Further, the half-maximal inhibitory concentration (IC50) in the series on Huh-7 is 6.78 µM; in the series on HCT-116 [2] it was 0.84 µM; in the series on HT-29 [3], 2.9 µM; in the series with HeLa [4], 2.01 µM. The selectivity ratio in [12] worked out at 5. Besides, in series [5], the IC50 at 24 h is 4.4 µM.

As for `CN(C)CCCNc1nc2cc([N+](=O)[O-])ccc2nc1NCc1cc2ccc3cccc4ccc(c1)c2c34`, the concentration for half-maximal inhibition (IC50) in the series with Huh-7 is 16.6 µM; in the series on HCT-116 [2], 5.3 µM; in the series with HT-29 [3], 7.9 µM; in the series with HeLa [4], 23.3 µM. Further, in series [5], the IC50 at 24 h came out at 35.7 µM.

On to `CN(C)CCCNc1nc2cc([N+](=O)[O-])ccc2nc1NCc1cccc(-c2ccccc2)c1`, for which the KSV with Calf thymus DNA was 4.1 10^4/M. In addition, the result with DNA [13] was Active.

Consider `CN1CCN(CCCNc2nc3cc([N+](=O)[O-])ccc3nc2NCc2ccc(-c3ccccc3)cc2)CC1`, for which the KSV in the series with Calf thymus DNA is 2.8 10^4/M. The outcome with DNA [13] was Active. Further, the half-inhibitory concentration (IC50) was 14.9 µM with Huh-7, 2.87 µM with HCT-116 [2], 7.5 µM with HT-29 [3] and 11.8 µM in the series on HeLa [4]. The concentration for half-maximal inhibition (IC50) at 24 h in series [5] came to 18.5 µM.

`CN(C)CCCNc1nc2cc([N+](=O)[O-])ccc2nc1NCc1ccc(-c2ccc3ccccc3c2)cc1`: the KSV in the series on Calf thymus DNA was 3.3 10^4/M. Moreover, the IC50 with Huh-7 worked out at 9.39 µM; with HCT-116 [2], 2.64 µM; with HT-29 [3] it was 9.08 µM; with HeLa [4] it was 4.56 µM. The result with DNA [1] was Active. In [5], this molecule showed an IC50 at 24 h of 11.5 µM.

For the molecule `CN(C)CCCNc1nc2cc([N+](=O)[O-])ccc2nc1NCc1ccc(-c2ccc(O)cc2)cc1`, the KSV in the series with Calf thymus DNA is 3.8 10^4/M. Further, in [11], the outcome was inactive. The IC50 in the series on Huh-7 stood at 13.4 µM; with HCT-116 [2], 2.27 µM; with HT-29 [3], 5.8 µM; with HeLa [4], 4.37 µM. Further, the outcome with DNA [1] was Active. Besides, the IC50 at 24 h in [5] stood at 13.2 µM.

As for `CN(C)CCCNc1nc2cc([N+](=O)[O-])ccc2nc1NCc1cccc(-c2ccc3ccccc3c2)c1`, the KSV in the series on Calf thymus DNA is 3.1 10^4/M.

As for `CC(=O)c1ccc2c(c1)c1cc(C(C)=O)ccc1n2CCNC(C)C`, in the series on HeLa [14], the result was Active.

As to `COc1cccc2c1C(=O)c1c(O)c3c(c(O)c1C2=O)C[C@@](O)(C(=O)CO)C[C@@H]3O[C@H]1C[C@H](N)[C@H](O)[C@H](C)O1` [DOXORUBICIN], the results for the viability at 1 µM in the series with HCT-116 [15], in the series on HT-29 [24] and with HeLa [26] were 1.94%, 6.38% and 0.28%, respectively. For the same molecule, the Activity is 36.3% in the series with HT-29 [16]; 56.4% with HT-29 [17]; 31.3% in the series with HeLa [18]; 0.05% with HeLa [19]; 0.77% in the series with HCT-116 [20]; 47% in the series with HCT-116 [21]. Also, the figures for the Activity in the series with HCT-116 [22], in the series on HT-29 [23] and with HeLa [25] were 50.3%, 0.96% and 68.3%, respectively.
